Patent US10383338B2, “Compositions and methods for making and using hydrolytic enzymes for degrading polysaccharides made by foodborne pathogenic bacteria” (University of Wyoming, priority 2014, dated 2019)
Like-named read-outs stand apart in the source and are kept apart here.

Legend:
[1] = tested on: wild-type L. monocytogenes EGD-e; test: Disinfection tolerance, wild-type strain; type: cell-based, Listeria monocytogenes; settings: sodium hypochlorite 1600 ppm, 10 min, room temperature; HTM-grown cultures
Protocol: FIGS. 6A-6D: Role of the c-di-GMP-induced EPS in biofilm formation, cell aggregation, and tolerance of L. monocytogenes to disinfectants and desiccation. […] Cultures were grown for 6 days at 30° C. in LB (top panel) or LB supplemented with 3% glycerol (bottom panel). Shown are average results from two biological replicates, where each strain was grown in six wells in a replicate (i.e., six technical replicates). Black circle, wild type; red square, ΔpdeB/C/D; green triangle, ΔpdeB/C/D ΔpssC; blue cross, ΔpdeB/C/D ΔpssE. […] Overnight cultures grown in BHI were inoculated into HTM liquid medium at A600 of 0.01 and incubated at 30° C. with gentle shaking (rotary shaker, 125 rpm) for 48 h. 1, ΔpdeB/C/D; 2, wild type; 3, ΔpdeB/C/D ΔpssC; 4, ΔpdeB/C/D ΔpssE. […] Aliquots of the HTM-grown cultures were mixed with disinfectant solutions for 10 min at room temperature. […]
EPS is known to protect bacteria from environmental insults. Here, the role of L. monocytogenes EPS in providing tolerance to disinfection and desiccation was evaluated. […]
Solutions of sodium hypochlorite, hydrogen peroxide, and benzalkonium chloride (Sigma-Aldrich and Sigma Life Sciences) were prepared in sterile phosphate-buffered saline with disinfection concentrations of 1600 ppm, 200 mM, and 100 ppm, respectively. […] Serial dilutions were plated on BHI agar and colonies were counted following a 48-h incubation at 37° C.

L. monocytogenes = type: cell-based; settings: 1600 ppm, 10 min, room temperature; for killing of wild-type strain EGD-e: HTM-grown culture
Protocol: Here, the role of L. monocytogenes EPS in providing tolerance to disinfection and desiccation was evaluated. […] To distinguish between the contribution of EPS versus EPS-independent c-di-GMP-responsive agents, included in the tests were the ΔpdeB/C/D ΔpssC mutant characterized by elevated intracellular c-di-GMP levels but defective in EPS production.
Cultures were grown in HTM with 3% glucose at 37° C. for 24 h, at which point small uniform clumps are formed by the ΔpdeB/C/D strain. Aliquots (250 μl; 10^8 cfu/ml) of these cultures were mixed with disinfectants at 1:1 vol ratios in small glass tubes that also contained 0.1 g of acid washed glass beads (Sigma Life Sciences). Following a 10-min exposure to disinfectants at room temperature, D/E neutralizing broth (500 μl; Difco) was added. Samples were vigorously vortexed (for 5 min) and clumps of the ΔpdeB/C/D strain were dispersed due to the action of the glass beads. Serial dilutions were plated on BHI agar and colonies were counted following a 48-h incubation at 37° C.

Which “killing / survivors after disinfectant treatment” value [1] does the source give for `OCl` [sodium hypochlorite] here?
Its value is “highly effective in killing”.

What about the “survival of EPS producing ΔpdeB/C/D mutant relative to wild type” value (L. monocytogenes) of the same compound?
Its value is > 10^6 fold.

What about the “killing of wild-type strain EGD-e” value (L. monocytogenes) of the same compound?
The value was “highly effective in killing the wild-type strain”.

And the “killing of wild-type strain EGD-e” value (L. monocytogenes; listed as SH)?
Its value is “lack of survivors”.
